In patent US20170320870A1 (Medical Research Council Technology, priority 2009, published 2017):

What was measured:
Assay in all cases: Kinase selectivity: percentage inhibition of each specific kinase at 1 μM inhibitor concentration
Assay type in all cases: biochemical
[1] = target: each specific kinase (kinase selectivity panel, Table 2) (Homo sapiens, UniProt O00141); conditions: SGK1
Description: (§1) Values are expressed as percentage inhibition of the each specific kinase at 1 μM inhibitor concentration.

[2] = target: each specific kinase (kinase selectivity panel, Table 2) (Homo sapiens, UniProt O14757); conditions: CHK1
Description: as §1

[3] = target: each specific kinase (kinase selectivity panel, Table 2) (Homo sapiens, UniProt O14965); conditions: Aurora A
Description: as §1

[4] = target: each specific kinase (kinase selectivity panel, Table 2) (Homo sapiens, UniProt O15530); conditions: PDK1
Chain of each specific kinase (kinase selectivity panel, Table 2) (Homo sapiens, UniProt O15530) (O15530 whole entry): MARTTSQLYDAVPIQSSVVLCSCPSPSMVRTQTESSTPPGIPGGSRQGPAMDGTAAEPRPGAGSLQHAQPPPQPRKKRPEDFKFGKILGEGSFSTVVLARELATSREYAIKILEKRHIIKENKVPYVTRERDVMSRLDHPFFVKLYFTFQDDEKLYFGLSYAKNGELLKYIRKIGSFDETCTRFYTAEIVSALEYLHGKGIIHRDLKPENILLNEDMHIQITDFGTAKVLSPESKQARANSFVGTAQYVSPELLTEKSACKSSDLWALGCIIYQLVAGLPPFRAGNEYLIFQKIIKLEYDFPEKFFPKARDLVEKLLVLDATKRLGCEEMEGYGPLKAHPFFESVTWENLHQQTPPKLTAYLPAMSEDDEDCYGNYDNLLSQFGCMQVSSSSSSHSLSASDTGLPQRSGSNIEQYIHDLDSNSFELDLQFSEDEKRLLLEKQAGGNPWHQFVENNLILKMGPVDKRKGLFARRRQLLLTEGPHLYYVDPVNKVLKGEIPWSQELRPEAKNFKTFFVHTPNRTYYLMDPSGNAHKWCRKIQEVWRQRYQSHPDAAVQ
Description: as §1

[5] = target: each specific kinase (kinase selectivity panel, Table 2) (Homo sapiens, UniProt O43318); conditions: TAK1
Description: as §1

[6] = target: each specific kinase (kinase selectivity panel, Table 2) (Homo sapiens, UniProt O60285); conditions: NUAK1
Description: as §1

[7] = target: each specific kinase (kinase selectivity panel, Table 2) (Homo sapiens, UniProt O96017); conditions: CHK2
Description: as §1

[8] = target: each specific kinase (kinase selectivity panel, Table 2) (Homo sapiens, UniProt P06213); conditions: IR
Chain of each specific kinase (kinase selectivity panel, Table 2) (Homo sapiens, UniProt P06213) (P06213 28-1382): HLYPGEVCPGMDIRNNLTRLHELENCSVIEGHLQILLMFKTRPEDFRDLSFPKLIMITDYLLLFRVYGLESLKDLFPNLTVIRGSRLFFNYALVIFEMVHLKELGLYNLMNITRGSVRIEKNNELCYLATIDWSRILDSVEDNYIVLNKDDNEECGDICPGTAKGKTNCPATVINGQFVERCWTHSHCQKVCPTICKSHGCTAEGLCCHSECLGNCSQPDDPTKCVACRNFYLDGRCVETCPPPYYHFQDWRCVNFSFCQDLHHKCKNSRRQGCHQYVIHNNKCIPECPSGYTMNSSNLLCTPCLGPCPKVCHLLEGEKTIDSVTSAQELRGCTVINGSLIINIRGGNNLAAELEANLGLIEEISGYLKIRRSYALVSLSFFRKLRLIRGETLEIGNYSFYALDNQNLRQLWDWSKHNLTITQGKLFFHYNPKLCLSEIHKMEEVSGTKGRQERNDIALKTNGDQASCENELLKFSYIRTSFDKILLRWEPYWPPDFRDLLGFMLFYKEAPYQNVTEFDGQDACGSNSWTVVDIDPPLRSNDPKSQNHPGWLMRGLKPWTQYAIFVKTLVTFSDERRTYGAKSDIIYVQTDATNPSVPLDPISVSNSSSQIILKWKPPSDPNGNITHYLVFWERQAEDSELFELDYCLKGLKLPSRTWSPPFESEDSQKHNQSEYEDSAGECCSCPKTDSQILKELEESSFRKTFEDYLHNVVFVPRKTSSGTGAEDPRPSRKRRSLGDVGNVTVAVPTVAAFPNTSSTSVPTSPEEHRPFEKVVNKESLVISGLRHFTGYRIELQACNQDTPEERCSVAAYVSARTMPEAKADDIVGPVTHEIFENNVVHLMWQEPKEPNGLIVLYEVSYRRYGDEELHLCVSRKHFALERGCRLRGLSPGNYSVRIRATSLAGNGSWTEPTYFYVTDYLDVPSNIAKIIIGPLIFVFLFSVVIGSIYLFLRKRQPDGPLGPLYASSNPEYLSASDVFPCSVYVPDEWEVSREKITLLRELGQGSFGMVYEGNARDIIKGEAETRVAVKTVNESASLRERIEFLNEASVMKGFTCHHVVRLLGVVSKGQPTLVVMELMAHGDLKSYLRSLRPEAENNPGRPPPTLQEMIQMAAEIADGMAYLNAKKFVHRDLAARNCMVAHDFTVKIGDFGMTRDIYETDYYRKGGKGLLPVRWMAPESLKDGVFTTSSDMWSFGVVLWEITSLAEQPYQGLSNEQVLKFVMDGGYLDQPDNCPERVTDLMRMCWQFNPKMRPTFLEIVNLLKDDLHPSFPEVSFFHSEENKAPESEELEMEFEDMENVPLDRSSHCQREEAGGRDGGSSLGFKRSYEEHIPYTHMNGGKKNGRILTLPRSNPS
Description: as §1

[9] = target: each specific kinase (kinase selectivity panel, Table 2) (Homo sapiens, UniProt P14616); conditions: IRR
Description: as §1

[10] = target: each specific kinase (kinase selectivity panel, Table 2) (Homo sapiens, UniProt P17252); conditions: PKCa
Description: as §1

[11] = target: each specific kinase (kinase selectivity panel, Table 2) (Homo sapiens, UniProt P24941); conditions: CDK2-Cyclin A
Description: as §1

[12] = target: each specific kinase (kinase selectivity panel, Table 2) (Homo sapiens, UniProt P28482); conditions: ERK2
Chain of each specific kinase (kinase selectivity panel, Table 2) (Homo sapiens, UniProt P28482) (P28482 whole entry): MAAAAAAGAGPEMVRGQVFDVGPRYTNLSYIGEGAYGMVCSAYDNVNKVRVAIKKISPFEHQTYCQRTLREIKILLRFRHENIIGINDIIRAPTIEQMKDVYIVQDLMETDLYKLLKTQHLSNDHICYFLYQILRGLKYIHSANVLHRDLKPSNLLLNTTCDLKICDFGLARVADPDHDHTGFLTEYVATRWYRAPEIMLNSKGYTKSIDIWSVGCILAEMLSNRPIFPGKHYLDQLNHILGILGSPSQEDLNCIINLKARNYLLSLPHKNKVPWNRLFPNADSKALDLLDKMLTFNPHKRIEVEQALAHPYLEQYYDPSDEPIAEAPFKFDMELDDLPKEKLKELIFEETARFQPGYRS
Description: as §1

[13] = target: each specific kinase (kinase selectivity panel, Table 2) (Homo sapiens, UniProt P31749); conditions: PKBa
Description: as §1

[14] = target: each specific kinase (kinase selectivity panel, Table 2) (Homo sapiens, UniProt P31751); conditions: PKBb
Description: as §1

[15] = target: each specific kinase (kinase selectivity panel, Table 2) (Homo sapiens, UniProt P33981); conditions: TTK
Description: as §1

[16] = target: each specific kinase (kinase selectivity panel, Table 2) (Homo sapiens, UniProt P41240); conditions: CSK
Description: as §1

[17] = target: each specific kinase (kinase selectivity panel, Table 2) (Homo sapiens, UniProt P43405); conditions: SYK
Description: as §1

[18] = target: each specific kinase (kinase selectivity panel, Table 2) (Homo sapiens, UniProt P45983); conditions: JNK1
Description: as §1

[19] = target: each specific kinase (kinase selectivity panel, Table 2) (Homo sapiens, UniProt P45984); conditions: JNK2
Description: as §1

[20] = target: each specific kinase (kinase selectivity panel, Table 2) (Homo sapiens, UniProt P51955); conditions: NEK2a
Description: as §1

[21] = target: each specific kinase (kinase selectivity panel, Table 2) (Homo sapiens, UniProt Q13188); conditions: MST2
Description: as §1

[22] = target: each specific kinase (kinase selectivity panel, Table 2) (Homo sapiens, UniProt Q13233); conditions: MEKK1
Description: as §1

[23] = target: each specific kinase (kinase selectivity panel, Table 2) (Homo sapiens, UniProt Q13627); conditions: DYRK1A
Description: as §1

[24] = target: each specific kinase (kinase selectivity panel, Table 2) (Homo sapiens, UniProt Q14680); conditions: MELK
Chain of each specific kinase (kinase selectivity panel, Table 2) (Homo sapiens, UniProt Q14680) (Q14680 whole entry): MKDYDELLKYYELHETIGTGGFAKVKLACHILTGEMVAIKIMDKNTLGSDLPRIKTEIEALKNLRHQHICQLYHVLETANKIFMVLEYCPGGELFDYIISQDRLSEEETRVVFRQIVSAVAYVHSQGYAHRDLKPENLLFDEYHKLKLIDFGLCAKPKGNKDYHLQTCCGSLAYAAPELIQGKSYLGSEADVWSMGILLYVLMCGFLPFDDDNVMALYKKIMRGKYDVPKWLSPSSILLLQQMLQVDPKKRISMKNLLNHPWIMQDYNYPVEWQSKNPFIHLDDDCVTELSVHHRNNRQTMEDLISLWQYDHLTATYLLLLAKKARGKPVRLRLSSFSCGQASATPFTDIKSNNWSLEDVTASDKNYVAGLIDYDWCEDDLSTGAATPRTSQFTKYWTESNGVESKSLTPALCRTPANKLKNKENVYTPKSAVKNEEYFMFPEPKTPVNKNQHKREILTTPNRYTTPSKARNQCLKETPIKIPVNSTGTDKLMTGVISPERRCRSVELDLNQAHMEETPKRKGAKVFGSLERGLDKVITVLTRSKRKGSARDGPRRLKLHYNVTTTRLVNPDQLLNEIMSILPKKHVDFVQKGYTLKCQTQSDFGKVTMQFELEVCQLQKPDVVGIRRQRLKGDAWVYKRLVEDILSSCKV
Description: as §1

[25] = target: each specific kinase (kinase selectivity panel, Table 2) (Homo sapiens, UniProt Q15303); conditions: HER4
Description: as §1

[26] = target: each specific kinase (kinase selectivity panel, Table 2) (Homo sapiens, UniProt Q15831); conditions: LKB1
Description: as §1

[27] = target: each specific kinase (kinase selectivity panel, Table 2) (Homo sapiens, UniProt Q16584); conditions: MLK3
Chain of each specific kinase (kinase selectivity panel, Table 2) (Homo sapiens, UniProt Q16584) (Q16584 whole entry): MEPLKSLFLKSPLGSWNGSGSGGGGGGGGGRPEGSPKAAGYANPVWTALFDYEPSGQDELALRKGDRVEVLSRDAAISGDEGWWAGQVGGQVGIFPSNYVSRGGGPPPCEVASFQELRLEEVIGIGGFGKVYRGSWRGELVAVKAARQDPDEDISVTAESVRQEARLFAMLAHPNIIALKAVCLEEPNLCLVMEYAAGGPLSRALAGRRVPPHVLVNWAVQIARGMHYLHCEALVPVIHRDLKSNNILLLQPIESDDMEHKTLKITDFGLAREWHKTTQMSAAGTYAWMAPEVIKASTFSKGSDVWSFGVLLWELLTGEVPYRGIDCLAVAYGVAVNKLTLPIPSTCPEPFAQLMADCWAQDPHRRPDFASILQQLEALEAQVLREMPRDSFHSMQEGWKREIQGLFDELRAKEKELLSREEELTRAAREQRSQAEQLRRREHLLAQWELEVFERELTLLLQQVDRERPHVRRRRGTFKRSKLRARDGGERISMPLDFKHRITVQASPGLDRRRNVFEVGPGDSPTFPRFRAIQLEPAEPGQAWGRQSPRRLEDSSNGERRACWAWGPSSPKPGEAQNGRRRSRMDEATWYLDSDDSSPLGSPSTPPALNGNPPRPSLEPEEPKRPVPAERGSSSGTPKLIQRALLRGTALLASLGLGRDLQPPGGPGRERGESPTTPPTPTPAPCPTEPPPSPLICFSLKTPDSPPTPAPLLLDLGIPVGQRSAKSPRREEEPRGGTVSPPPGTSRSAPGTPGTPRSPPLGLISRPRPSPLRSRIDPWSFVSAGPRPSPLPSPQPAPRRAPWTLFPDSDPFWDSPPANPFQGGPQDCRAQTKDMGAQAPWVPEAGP
Description: as §1

[28] = target: each specific kinase (kinase selectivity panel, Table 2) (Homo sapiens, UniProt Q8IWQ3); conditions: BRSK2
Description: as §1

[29] = target: each specific kinase (kinase selectivity panel, Table 2) (Homo sapiens, UniProt Q96GD4); conditions: Aurora B
Description: as §1

[30] = target: each specific kinase (kinase selectivity panel, Table 2) (Homo sapiens, UniProt Q96SB4); conditions: SRPK1
Chain of each specific kinase (kinase selectivity panel, Table 2) (Homo sapiens, UniProt Q96SB4) (Q96SB4 whole entry): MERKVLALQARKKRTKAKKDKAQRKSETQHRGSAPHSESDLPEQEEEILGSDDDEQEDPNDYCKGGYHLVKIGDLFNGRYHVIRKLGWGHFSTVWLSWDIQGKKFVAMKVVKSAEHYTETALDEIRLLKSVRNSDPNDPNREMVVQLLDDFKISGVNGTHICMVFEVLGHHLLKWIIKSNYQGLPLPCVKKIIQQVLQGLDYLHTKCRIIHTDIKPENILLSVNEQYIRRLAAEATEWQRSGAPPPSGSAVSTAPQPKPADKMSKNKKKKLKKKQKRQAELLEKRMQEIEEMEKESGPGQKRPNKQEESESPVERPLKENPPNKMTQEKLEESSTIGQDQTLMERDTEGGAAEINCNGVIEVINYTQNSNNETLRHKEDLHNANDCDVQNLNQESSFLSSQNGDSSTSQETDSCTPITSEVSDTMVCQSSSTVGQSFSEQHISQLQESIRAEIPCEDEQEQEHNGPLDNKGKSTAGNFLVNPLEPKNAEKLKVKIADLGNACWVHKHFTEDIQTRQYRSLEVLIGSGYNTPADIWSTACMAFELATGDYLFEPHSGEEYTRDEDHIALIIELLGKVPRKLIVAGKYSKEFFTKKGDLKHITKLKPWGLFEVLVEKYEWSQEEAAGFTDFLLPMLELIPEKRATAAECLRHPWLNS
Description: as §1

[31] = target: each specific kinase (kinase selectivity panel, Table 2) (Homo sapiens, UniProt Q9BUB5); conditions: MNK1
Description: as §1

[32] = target: each specific kinase (kinase selectivity panel, Table 2) (Homo sapiens, UniProt Q9H2X6); conditions: HIPK2
Description: as §1

[33] = target: each specific kinase (kinase selectivity panel, Table 2) (Homo sapiens, UniProt Q9HC98); conditions: NEK6
Chain of each specific kinase (kinase selectivity panel, Table 2) (Homo sapiens, UniProt Q9HC98) (Q9HC98 whole entry): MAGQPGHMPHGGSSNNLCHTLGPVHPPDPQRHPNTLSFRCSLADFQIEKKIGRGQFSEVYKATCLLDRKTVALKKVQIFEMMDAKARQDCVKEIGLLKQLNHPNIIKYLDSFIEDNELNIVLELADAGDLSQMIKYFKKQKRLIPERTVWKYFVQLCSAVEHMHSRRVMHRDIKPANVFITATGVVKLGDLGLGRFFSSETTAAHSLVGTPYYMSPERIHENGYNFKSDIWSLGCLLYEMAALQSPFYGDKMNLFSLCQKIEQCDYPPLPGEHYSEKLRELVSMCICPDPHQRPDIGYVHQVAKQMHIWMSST
Description: as §1

[34] = test system: each specific kinase (kinase selectivity panel, Table 2)
Description: as §1

| SMILES | percentage inhibition of SGK1 [1] [percentage] | percentage inhibition of CHK1 [2] [percentage] | percentage inhibition of Aurora A [3] [percentage] | percentage inhibition of PDK1 [4] [percentage] | percentage inhibition of TAK1 [5] [percentage] | percentage inhibition of NUAK1 [6] [percentage] | percentage inhibition of CHK2 [7] [percentage] | percentage inhibition of IR [8] [percentage] | percentage inhibition of IRR [9] [percentage] | percentage inhibition of PKCa [10] [percentage] | percentage inhibition of CDK2-Cyclin A [11] [percentage] | percentage inhibition of ERK2 [12] [percentage] | percentage inhibition of PKBa [13] [percentage] | percentage inhibition of PKBb [14] [percentage] | percentage inhibition of TTK [15] [percentage] | percentage inhibition of CSK [16] [percentage] | percentage inhibition of SYK [17] [percentage] | percentage inhibition of JNK1 [18] [percentage] | percentage inhibition of JNK2 [19] [percentage] | percentage inhibition of NEK2a [20] [percentage] | other results |
| --- | --- | --- | --- | --- | --- | --- | --- | --- | --- | --- | --- | --- | --- | --- | --- | --- | --- | --- | --- | --- | --- |
| CC[C@H](C)Oc1nccc2[nH]nc(C)c12 [Example 121, 4-((S)-sec-Butoxy)-3-methyl-1H-pyrazolo[4,3-c]pyridine] | 23 | 10 | 46 | 13 | 72 | 59 | 13 | 8 | 22 | 2 | 61 | 0 | 19 | 3 | 30 | 6 | 0 | 7 | 0 | 0 | percentage inhibition of MST2 [21]: 55 percentage; percentage inhibition of MEKK1 [22]: 0 percentage; percentage inhibition of DYRK1A [23]: 27 percentage; percentage inhibition of MELK [24]: 61 percentage; percentage inhibition of HER4 [25]: 0 percentage; percentage inhibition of LKB1 [26]: 42 percentage; percentage inhibition of MLK3 [27]: 23 percentage; percentage inhibition of BRSK2 [28]: 13 percentage; percentage inhibition of Aurora B [29]: 0 percentage; percentage inhibition of SRPK1 [30]: 21 percentage; percentage inhibition of MNK1 [31]: 1 percentage; percentage inhibition of HIPK2 [32]: 0 percentage; percentage inhibition of NEK6 [33]: 6 percentage; percentage inhibition of AMPK [34]: 29 percentage; percentage inhibition of PHK [34]: 7 percentage |
| O=C(CCc1n[nH]c2ccnc(NC3CCCCC3)c12)N1CCC[C@H](c2ccccc2)C1 [Example 172, 3-(4-Cyclohexylamino-1H-pyrazolo[4,3-c]pyridin-3-yl)-1-((R)-3-phenyl-piperidin-1-yl)-propan-1-one] | 1 | 0 | 0 | 0 | 9 | 14 | 40 | 4 | 15 | 0 | 0 | 9 | 0 | 0 | 14 | 11 | 4 | 17 | 22 | 5 | percentage inhibition of MST2 [21]: 10 percentage; percentage inhibition of MEKK1 [22]: 7 percentage; percentage inhibition of DYRK1A [23]: 27 percentage; percentage inhibition of MELK [24]: 5 percentage; percentage inhibition of HER4 [25]: 10 percentage; percentage inhibition of LKB1 [26]: 8 percentage; percentage inhibition of MLK3 [27]: 29 percentage; percentage inhibition of BRSK2 [28]: 0 percentage; percentage inhibition of Aurora B [29]: 15 percentage; percentage inhibition of SRPK1 [30]: 17 percentage; percentage inhibition of MNK1 [31]: 0 percentage; percentage inhibition of HIPK2 [32]: 0 percentage; percentage inhibition of NEK6 [33]: 1 percentage; percentage inhibition of AMPK [34]: 0 percentage; percentage inhibition of PHK [34]: 26 percentage |
